Test: gradient 5% acetonitrile 3 min, to 50% in 2 min, to 85% in 15 min, held 3 min, 100 µL/min
Details: column: Zorbax Extend-C18 2.1 x 50 mm; eluents: water / acetonitrile, 0.1% formic acid
Summary of the method: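 Mixtures of ~100 pure standards were chromatographed on a Zorbax Extend-C18 column (2.1 × 50 mm, 1.8 μm) at 100 μL/min using water and acetonitrile, each with 0.1% formic acid. Detection used a quadrupole time-of-flight mass spectrometer in positive and negative ionization mode, and data collection spanned 3 months. Retention time was obtained from adduct peaks picked computationally and each checked manually.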

Structure (SMILES) | RP-LC retention time
CC(C)CCNC(=O)c1cn2ccccc2n1 | 656 s
CCC(Sc1ccc(NC(=O)c2cccc(F)c2)nn1)C(=O)OC (centres undefined) | 890 s
O=C(Nc1cccc(Cl)c1)C1CCCN1S(=O)(=O)c1cccc2nsnc12 (centres undefined) | 949 s
COc1ccc(-c2nc3ccc(C)cn3c2Nc2ccc(C)cc2)cc1 | 778 s
O=C(Cc1ccsc1)N1CCC(n2c(-c3ccco3)nc3cccnc32)C1 (centres undefined) | 689 s
CC(C)n1c(=O)c2ccccc2n(Cc2nc(-c3cccc(C(F)(F)F)c3)no2)c1=O | 1230 s
COc1ccccc1-c1noc(-c2nn(-c3ccc(Cl)cc3)ccc2=O)n1 | 832 s
CN(C)c1ncccc1C(=O)Nc1ccc(F)cc1 | 610 s
O=C(NCc1cscn1)C1CCN(S(=O)(=O)c2cccc(C(F)(F)F)c2)CC1 | 787 s
O=C(CCc1c[nH]c2ccccc12)NCCc1c[nH]c2ccc(Cl)cc12 | 861 s
CC(C)CNC(=O)CCc1nc2ccccc2n(CC(=O)NCCc2ccc(Cl)cc2)c1=O | 855 s
Clc1ccccc1-c1noc(Cc2nc(-c3ccccc3)cs2)n1 | 1180 s
CN(C)c1cccc(C(=O)Nc2cc(-c3cccnc3)no2)c1 | 728 s
CC(=O)c1cccc(NC(=O)Cc2ccc3ccccc3c2)c1 | 858 s
O=S(=O)(c1cc(-c2nnc(C3CC3)o2)co1)N1CCCCC1 | 839 s
O=C(NC1CC1)[C@@H]1C[C@H](Oc2ccccc2)CN1C(=O)c1n[nH]c(=O)c2ccccc12 | 685 s
O=C(Cn1cccc1-c1nc(-c2ccc3c(c2)OCO3)no1)Nc1cc(F)ccc1F | 1000 s
CCn1cc(CC(=O)NCc2cccc(F)c2)c2cccnc21 | 716 s
O=S(=O)(NCC(O)(c1ccccc1)C(F)(F)F)c1ccc(F)c(Cl)c1 (centres undefined) | 922 s
O=C(Nc1ccc(Cl)cc1)C1CCCN1S(=O)(=O)c1cccc2nsnc12 (centres undefined) | 924 s
CCCc1noc(-c2ccc3nnc(CC(=O)Nc4ccc(C)c(C)c4)n3c2)n1 | 940 s
COc1ccccc1C(=O)Nc1nnc(SCc2ccc(Br)cc2)s1 | 1140 s
CC(C)NC(=O)N(C1CC1)C1CCOC2(CCN(C(=O)C3(c4ccccc4)CC3)CC2)C1 (centres undefined) | 865 s

Structure (SMILES) | RP-LC retention time
CCS(=O)(=O)c1ccc(C(=O)Nc2nc3c(s2)CC(C)CC3)cc1 (centres undefined) | 867 s
COCCCNC(=O)NCc1cccnc1OC | 594 s
CC(=O)N1c2ccccc2CC1c1nc(C2CC2)no1 (centres undefined) | 820 s
O=C(CCn1c(CO)nc2ccccc21)c1ccccc1 | 578 s
COC(=O)c1c(NC(C)c2ccccc2)c2cccc(Cl)c2[nH]c1=O (centres undefined) | 864 s
CC(C)n1cnc2cc(CNC(=O)c3cccs3)ccc21 | 608 s
Fc1cccc(CNc2cc(-n3cccn3)ncn2)c1 | 854 s
O=C(NCc1ccco1)C1CN(C(=O)c2ccc(F)c(F)c2)C1 | 663 s
CCS(=O)(=O)c1ccc2c(c1)N(Cc1nc(-c3cccc(C)c3)no1)C(=O)CO2 | 926 s
CC(CCc1ccccc1)NC(=O)Cn1cccc1-c1nc(-c2ccc3c(c2)OCO3)no1 (centres undefined) | 1090 s
Cn1c(C(=O)NCc2ccccc2)cc2sc(Cl)cc21 | 1060 s
Cc1nc2cc(N3CCCC(C(=O)O)C3)cnc2nc1C (centres undefined) | 604 s
COCCNS(=O)(=O)c1cc(-c2cc(C(F)(F)F)on2)sc1C | 982 s
Cc1cc2oc(C(=O)Nc3ccccc3[N+](=O)[O-])c(C)c2cc1C | 1090 s
CCCN1C(=O)COc2ccc(-c3noc(-c4ccc(N(C)C)cc4)n3)cc21 | 1280 s
CCOc1ccc(/C=C2\CCc3ccccc3C2=O)cc1 | 1290 s
NC(=O)c1cc(-c2ccccc2)sc1NC(=O)c1cc(Cl)sc1Cl | 1180 s
Cc1[nH]nc(-c2c(C)sc(C)c2S(=O)(=O)Nc2ccc(F)c(Cl)c2)c1C | 1140 s
CC(=O)Nc1ccc2nc(-c3ccc(Cl)cc3)cc(OCC(N)=O)c2c1 | 621 s
Cc1cc(C)cc(NC(=O)Cc2csc3nc(-c4ccccc4)cn23)c1 | 880 s
CCOC(=O)c1ccc(NC(=O)CCc2c(-c3ccc(F)cc3)nc3ccccn23)cc1 | 700 s
O=C(NC1CCCCCC1)C1CCCN(S(=O)(=O)c2c[nH]c(C(=O)N3CCCCCC3)c2)C1 (centres undefined) | 926 s

Next, values leading:

RP-LC retention time | Structure (SMILES)
944 s | CCCN1C(=O)COc2ccc(-c3csc(NC(=O)c4c(OC)cccc4OC)n3)cc21
742 s | Cc1ccc(-c2cc3c(=O)n(Cc4noc(CN5CCC(C)CC5)n4)ccn3n2)c(C)c1
934 s | COc1ccc(-c2nnc(N3CCC(C(=O)NC(C)c4ccc(C)cc4C)CC3)o2)cc1 (centres undefined)
919 s | COc1ccc(OCc2nc(CCN(C)C(=O)CC3CCCC3)no2)cc1
616 s | CNC(=O)N1CCCN(S(C)(=O)=O)C(c2ccccc2)CC(=O)NCC1 (centres undefined)
854 s | Cc1noc(-c2cccc(OC3CN(C(=O)Cc4ccccc4)C3)c2)n1
692 s | CCN1CCn2cc(S(=O)(=O)Nc3ccc(C(=O)OC)cc3)cc2C1=O
727 s | Cc1nc2cc(-c3ccc(Cl)cc3)nn2c(C)c1CCC(=O)N1CCN(c2ccccn2)CC1
990 s | COc1ccc(-c2cc3c(=O)n(Cc4nc(-c5cccc(OC)c5OC)oc4C)ccn3n2)cc1
884 s | COc1ccc(Br)cc1CNC(=O)c1ccc2c(c1)NC(=O)C1CCCCN21 (centres undefined)
790 s | Cc1ccc(C2=NC3(CCN(C(=O)c4ccc5[nH]ccc5c4)CC3)ON2)cc1
925 s | Cc1nc(-c2csc(S(=O)(=O)N3CCC(C(=O)Nc4cccc(F)c4)CC3)c2)no1
750 s | CCCN1CCN(c2ccc(-c3nc(-c4ccc(C)cc4)no3)cn2)CC1
676 s | COc1ccc(-c2c(C(=O)NC(C)C)nc3ccccn23)cc1
688 s | COc1ccc2cc(C(=O)N3CCCN(c4cc(=O)n(C)c(=O)n4C)CC3)[nH]c2c1
1130 s | CCN1C(=O)COc2ccc(-c3noc(-c4ccc(OC)cc4)n3)cc21
570 s | CCn1cnc(S(=O)(=O)N2CCC(C(=O)Nc3ncccc3C)CC2)c1
807 s | COc1ccc(NC(=O)Cn2c(=O)c3cc(C4CC4)nn3c3ncccc32)cc1Cl
837 s | Cc1nn(C)c(C)c1S(=O)(=O)N1CCC2(CC1)C(=O)N(C(C)C)C2c1ccccc1 (centres undefined)
918 s | O=C(CN1C(=O)C2CCCCN2c2ccc(S(=O)(=O)N3CCCC3)cc21)N1CCCCCC1 (centres undefined)
725 s | Cc1ccc(S(=O)(=O)N2CCCC(Cn3c(C)nc4cccnc43)C2)cc1F (centres undefined)
658 s | Cc1ccnc(N2CCC(C(=O)NCc3ccc4c(c3)OCO4)CC2)n1

RP-LC retention time | Structure (SMILES)
822 s | COc1ccc(NC(=O)NCCC2CCN(S(=O)(=O)c3ccccc3)CC2)cc1
919 s | Cc1nc(-c2cc(S(=O)(=O)N3CCC(C(=O)NCCc4cccs4)CC3)c(C)s2)no1
752 s | Cc1cccc(S(=O)(=O)N2CCN(c3cnn4c(C5CC5)nnc4c3)CC2)c1
660 s | O=C(NCc1ccc2c(c1)OCO2)C1CCCN(c2ccnc(-c3ccc(F)cc3)n2)C1 (centres undefined)
560 s | CCCN1CCN(C(=O)c2ccc(-c3ccc(N4CCSCC4)nc3)cc2)CC1
1010 s | Cc1cc(Cl)ccc1N1C(=O)CN(S(C)(=O)=O)CC1(C)C(=O)NC1CCCCCCC1 (centres undefined)
709 s | COc1ccc(NC(=O)C2CC(=O)N(c3cccc(NC(C)=O)c3)C2)cc1Cl (centres undefined)
917 s | COc1ccc(OCc2noc(CNC(=O)Nc3ccc(Cl)c(Cl)c3)n2)cc1
1240 s | CCCn1cc(C(=O)NCCC(C)C)c(S(=O)(=O)N2CCN(c3ccccc3OCC)CC2)n1
670 s | O=C(Cn1nc2nc(N3CCCC3)ccn2c1=O)NCc1ccc(F)c(Cl)c1
666 s | O=C(NCc1ccc(F)cc1)C1CCN(c2cc(N3CCSCC3)ncn2)CC1
908 s | COc1cccc(CCC(=O)N2CC3CN(S(=O)(=O)c4ccc(C)cc4)CC(C2)O3)c1
662 s | CCCNC(=O)N1CCCCCCN(C)C(=O)CC1
965 s | CCc1ccc(C2=C(C)C(N3CCC(NC(=O)C(C)(C)CC)CC3)=NS2(=O)=O)cc1
604 s | CCCNC(=O)N1CCN(Cc2nc3cccnc3n2-c2ccc(F)cc2)CC1
1000 s | Cn1cc2c3c(cccc31)CN(C(=O)Nc1ccc(Br)cc1F)CC2
636 s | Cc1cnc(NC(=O)c2ccc(N3CCCC3)nn2)s1
722 s | CNC(=O)c1ccccc1Nc1nc(Nc2ccc(N3CCOCC3)cc2OC)ncc1Cl
942 s | CC(C)NC(=O)C1CCN(c2nc3ccc(-c4cccc(F)c4)nc3s2)CC1
933 s | CCc1ccc(C(=O)N2CCC3(CC2)N=C(c2ccc(C)cc2)NO3)cc1
842 s | O=C(NCc1ccc(F)c(Cl)c1)C1CCN(C(=O)c2ncn3c2COC(c2ccccc2)C3)CC1 (centres undefined)
716 s | CCOC(=O)c1c(C)oc2ncnc(NCCN3CCN(c4ccc(OC)cc4)CC3)c12
